# Experiments:
# Format in all cases: in vivo, C57BL/6N mice
# [1] = system: mice with adenine-induced renal failure; assay: Survival of mice with adenine-induced renal failure; conditions: TAK875 30 mg/kg p.o. QD
# Protocol: • 1. Experimental Animals: C57BL/6N, 8 weeks old, SPF grade, male. • 2. Experimental Drugs: • LY2922470 (Shanghai Taoshu Biotechnology Co., Ltd.) • TAK875 (Shanghai Taoshu Biotechnology Co., Ltd.)
# 1) Preparation of TAK875: A total of 27 mg of TAK875 powder was accurately weighed using an analytical balance and dissolved in 9 mL of 0.8% CMC-Na solution. The mixture was sonicated for 5 minutes to form a 3 mg/mL white suspension. The suspension was stored at 4° C. for later use.
# 2) Preparation of LY2922470: A total of 80 mg of LY2922470 yellow crystals was added to 200 μL of DMSO to form a clear yellow solution. The solution was gradually added in batches to 10 mL of 0.8% CMC-Na solution. After heating and sonication for 5 hours, an 8 mg/mL white suspension of LY2922470 was obtained. The suspension was stored at 4° C. for later use.
# Eight-week-old male C57BL/6N mice were acclimatized for one week and then randomly divided into six groups. Except for the control group, all mice were fed a 0.25% adenine-containing diet for modelling. The control group received a normal diet. The mice had free access to food. One week after model induction, mice in each group were orally administered the corresponding drug once daily in the afternoon, according to their group assignment. The control group and the model group received vehicle under a same condition. During the treatment period, the adenine-containing diet was continued. Mouse survival was monitored until the end of the experiment.
# [2] = system: mice with adenine-induced renal failure; assay: Renal fibrosis by Masson's trichrome staining in adenine-induced renal failure mice; conditions: TAK875 30 mg/kg p.o. QD for 2 weeks; 3 weeks of modeling; FIG. 6
# Protocol: Mice were modeled and administered drugs as described in Example 3. After two weeks of drug administration, the mice were euthanized, and their kidneys were fixed, sectioned, stained with Masson's trichrome, and analyzed.
# Whole-slide scanning was performed using a fully automated digital pathology scanner KF-PRO-120 from Ningbo Jiangfeng Bioinformatics Technology Co., Ltd. Masson-stained images were analyzed using the Area Quantification module in HALO software. The blue staining of collagen fibers was used as the unified criterion for positivity. The images were analyzed, and the percentage of blue-stained collagen fibers in the tissue was calculated.
# Statistical analysis was conducted using GraphPad Prism 8.0. Continuous data for each group were expressed as mean+SD. One-way ANOVA was used for multi-group comparisons, and Student's t-test was used for comparisons between two groups. A p-value<0.05 was considered statistically significant. For categorical data, chi-square tests were used for comparisons among groups, and a p-value<0.05 was considered statistically significant.
# [3] = system: mice with adenine-induced renal failure; assay: Blood urea nitrogen (BUN) in adenine-induced renal failure mice
# Protocol: (§1) • a) Control group: Fed with adenine-free feed; other procedures were the same as those in the model group. • b) Model group: Fed with feed containing 0.25% adenine for modelling. • c) LY-10 mg/kg group: Model+LY2922470 (10 mg/kg, p.o., QD). • d) LY-30 mg/kg group: Model+LY2922470 (30 mg/kg, p.o., QD). • e) LY-60 mg/kg group: Model+LY2922470 (60 mg/kg, p.o., QD). • f) TAK875 group: Model+TAK875 (30 mg/kg, p.o., QD).
# (§2) Except for the control group, all other mice were fed with a diet containing 0.25% adenine for modelling. The control group was fed with a normal diet. All mice were allowed free access to food. One week after modeling, each group of mice was administered the respective treatment via oral gavage once daily in the afternoon for two consecutive weeks. The control group and the model group received vehicle under a same condition. The adenine-containing diet was continuously administered for modeling throughout the treatment period until the end of the experiment. The physical condition of the mice was monitored, and body weight was measured and recorded weekly. Blood samples were collected from the orbital venous plexus at 1 week (post-modeling) and 3 weeks (after 2 weeks of treatment). Serum was separated for the measurement of serum creatinine (CRE) and blood urea nitrogen (BUN). At the end of the two-week treatment, renal function of each group was assessed using a TGFR renal function monitoring and smart analysis system. After testing, tissues were collected from the mice to confirm the efficacy of the treatment.
# (§3) Statistical analyses were performed using GraphPad Prism 8.0 software. Continuous data of each group were expressed as mean+SD. One-way ANOVA was used for multi-group comparisons, and Student's t-test was used for comparisons between two groups. A p-value<0.05 was considered statistically significant. For categorical data, chi-square tests were used to compare between groups, with p<0.05 indicating a statistically significant difference.
# (§4) Mice were fed a 0.25% adenine-containing diet. After one week, the mice were treated with LY2922470 or TAK875. During the treatment period, the adenine-containing diet was continued for modeling. After three weeks of adenine feeding (i.e., two weeks of drug administration), blood samples were collected from the mice, and serum was isolated for CREA and BUN measurements.
# [4] = system: mice with sustained adenine-induced renal failure; assay: Glomerular filtration rate in mice with sustained adenine-induced renal failure (TGFR system); conditions: TAK875 30 mg/kg p.o. QD for 2 weeks; 3 weeks continuous 0.25% adenine diet; FIG. 4
# Protocol: as §1, §2, §3
# One week later, LY2922470 or TAK875 was administrated for treatment. […]
# [5] = system: mice with adenine-induced renal failure; assay: Serum creatinine (CREA) in adenine-induced renal failure mice
# Protocol: as §1, §2, §3, §4
# [6] = TAK875 30 mg/kg p.o. QD for 2 weeks
# [7] = TAK875 30 mg/kg p.o. QD, mean ± SD
compound,measurement,setting,value
Cc1cc(OCCCS(C)(=O)=O)cc(C)c1-c1cccc(COc2ccc3c(c2)OC[C@H]3CC(=O)O)c1 [TAK875],Survival Rate (%),"[1]; started 1 week after start of continued 0.25% adenine diet, end of experiment, 30 mg/kg",46.2%
same,Count after Drug Administration (surviving mice),[1]; 13 at enrollment,6
same,Degree of renal fibrosis compared to the model group (Masson staining),[2],not significantly reduced
same,BUN level compared with the model group,[3]; [6],did not significantly reduce
same,BUN after modeling for 3 weeks (after drug administration for 2 weeks),[3]; [7],25.07 ± 4.91 mmol/L
same,BUN after modeling for 1 week (before drug administration),"[3]; baseline of the TAK875 30 mg/kg group, mean ± SD",11.25 ± 3.98 mmol/L
same,GFR compared with the model group,[4],increased
same,CREA level compared with the model group,[5]; [6],did not significantly reduce
same,CREA after modeling for 3 weeks (after drug administration for 2 weeks),[5]; [7],137.68 ± 30.23 µmol/L

# Source: patent US20250281478A1, “METHODS FOR PREVENTING OR TREATING KIDNEY DISEASES” (JEAMOON BEIJING CO., LTD., priority 2022, published 2025)
